The text below walks through data of patent publication US20170240556A1, “BIFLUORODIOXALANE-AMINO-BENZIMIDAZOLE KINASE INHIBITORS FOR THE TREATMENT OF CANCER, AUTOIMMUNEINFLAMMATION AND CNS DISORDERS” (4SC DISCOVERY GMBH, priority 2012, published 2017).

Chain of Casein kinase 1 delta (CSKN1D) (P48730 whole entry): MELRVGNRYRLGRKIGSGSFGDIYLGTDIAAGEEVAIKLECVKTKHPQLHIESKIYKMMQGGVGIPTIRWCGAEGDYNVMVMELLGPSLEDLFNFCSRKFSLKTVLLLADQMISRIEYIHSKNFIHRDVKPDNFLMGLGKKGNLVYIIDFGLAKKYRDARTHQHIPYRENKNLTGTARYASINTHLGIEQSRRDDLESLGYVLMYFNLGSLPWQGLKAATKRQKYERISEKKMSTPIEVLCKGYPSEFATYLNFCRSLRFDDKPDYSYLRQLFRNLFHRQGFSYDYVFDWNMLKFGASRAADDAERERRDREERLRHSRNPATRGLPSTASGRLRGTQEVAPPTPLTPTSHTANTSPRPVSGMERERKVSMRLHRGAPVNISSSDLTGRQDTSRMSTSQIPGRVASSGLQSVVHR

The test addresses Casein kinase 1 delta (CSKN1D) (Homo sapiens, UniProt P48730). Kind of test: Casein kinase assay, CK1 delta. To be noted: recombinant CSKN1D 5 nM, ATP 10 μM. The class given is biochemical. The protocol:
The recombinant protein Casein kinase 1 delta (CSKN1D) was added to the substrate solution in a concentration of 5 nM and gently mixed. Dilution series in of compounds of the present invention in DMSO were added to the reaction mixture, followed after 20 min by addition of a mixture of ATP and ^33P-ATP (specific activity 0.01 μCi/μl final) to a final concentration of 10 μM. Reactions were carried out at 25° C. for 120 min, followed by spotting the reactions onto P81 ion exchange filter paper. Unbound phosphate was removed by washing of the filters in 0.75% phosphoric acid. […] IC50 values and curve fits were obtained using the program Prism® (Graph Pad Software).
As to `O=C(Nc1nc2cc3c(cc2[nH]1)OC(F)(F)O3)c1cncc(-c2ccco2)c1` [Compound 4B, N-(2,2-difluoro-5H-[1,3]dioxolo[4′,5′:4,5]benzo[1,2-d]imidazol-6-yl)-5-(furan-2-yl)nicotinamide], the IC50 was under 200 nM.

On to `O=C(Nc1nc(C(=O)Nc2nc3cc4c(cc3[nH]2)OC(F)(F)O4)ns1)c1ccsc1` [Compound 10B, N-(2,2-difluoro-5H-[1,3]dioxolo[4′,5′:4,5]benzo[1,2-d]imidazol-6-yl)-5-(thiophene-3-carboxamido)-1,2,4-thiadiazole-3-carboxamide], for which the IC50 is under 200 nM.

In the case of `O=C(Nc1nc2cc3c(cc2[nH]1)OC(F)(F)O3)c1csc(-c2cccc(F)c2)n1` [Compound 12B, N-(2,2-difluoro-5H-[1,3]dioxolo[4′,5′:4,5]benzo[1,2-d]imidazol-6-yl)-2-(3-fluorophenyl)thiazole-4-carboxamide], the IC50 is under 200 nM.

Turning to `Cn1cc(C(=O)Nc2nc3cc4c(cc3[nH]2)OC(F)(F)O4)cn1` [Compound 13B, N-(2,2-difluoro-5H-[1,3]dioxolo[4′,5′:4,5]benzo[1,2-d]imidazol-6-yl)-1-methyl-1H-pyrazole-4-carboxamide], the IC50 is under 200 nM.

Take `O=C(Nc1nc2cc3c(cc2[nH]1)OC(F)(F)O3)c1ccnc(N2CCSCC2)c1` [Compound 14B, N-(2,2-difluoro-5H-[1,3]dioxolo[4′,5′:4,5]benzo[1,2-d]imidazol-6-yl)-2-thiomorpholinoisonicotinamide]: the IC50 is under 200 nM.

Consider `O=C(Nc1nc2cc3c(cc2[nH]1)OC(F)(F)O3)c1csc(-c2cccc(OC(F)(F)F)c2)n1` [Compound 19B], for which the IC50 is 200 to 1000 nM.

Regarding `O=C(Nc1nc2cc3c(cc2[nH]1)OC(F)(F)O3)c1ccc(-c2ccccc2)cc1` [Compound 21B], the IC50 lay in the range of 200 to 1000 nM.

For the compound `O=C(Nc1nc2cc3c(cc2[nH]1)OC(F)(F)O3)c1ccc(-n2cnnn2)cc1` [Compound 22B, N-(2,2-difluoro-5H-[1,3]dioxolo[4′,5′:4,5]benzo[1,2-d]imidazol-6-yl)-4-(1H-tetrazol-1-yl)benzamide], the IC50 is under 200 nM.

On to `O=C(Nc1nc2cc3c(cc2[nH]1)OC(F)(F)O3)c1cncc(-c2cccs2)c1` [Compound 23B, N-(2,2-difluoro-5H-[1,3]dioxolo[4′,5′:4,5]benzo[1,2-d]imidazol-6-yl)-5-(thiophen-2-yl)nicotinamide], for which the IC50 is under 200 nM.

With `COc1cccc(C(=O)Nc2nc3cc4c(cc3[nH]2)OC(F)(F)O4)n1` [Compound 24B], the IC50 is 200 to 1000 nM.

On to `O=C(Nc1nc2cc3c(cc2[nH]1)OC(F)(F)O3)c1cncc(N2CCOCC2)c1` [Compound 25B, N-(2,2-difluoro-5H-[1,3]dioxolo[4′,5′:4,5]benzo[1,2-d]imidazol-6-yl)-5-morpholinonicotinamide], for which the IC50 was under 200 nM.

As to `COc1ccnc(C(=O)Nc2nc3cc4c(cc3[nH]2)OC(F)(F)O4)c1` [Compound 26B], the IC50 was over 1000 nM.

Consider `Cc1onc(-c2ccccc2)c1C(=O)Nc1nc2cc3c(cc2[nH]1)OC(F)(F)O3` [Compound 50, N-(2,2-difluoro-5H-[1,3]dioxolo[4′,5′:4,5]benzo[1,2-d]imidazol-6-yl)-5-methyl-3-phenylisoxazole-4-carboxamide], for which the IC50 was over 1000 nM.

For the compound `O=C(Nc1nc2cc3c(cc2[nH]1)OC(F)(F)O3)c1ccc([N+](=O)[O-])cc1` [Compound 58, N-(2,2-difluoro-5H-[1,3]dioxolo[4′,5′:4,5]benzo[1,2-d]imidazol-6-yl)-4-nitrobenzamide], the half-maximal inhibitory concentration (IC50) was 200 to 1000 nM.

As to `O=C(Nc1nc2cc3c(cc2[nH]1)OC(F)(F)O3)c1ccc2ccccc2n1` [Compound 59, N-(2,2-difluoro-5H-[1,3]dioxolo[4′,5′:4,5]benzo[1,2-d]imidazol-6-yl)quinoline-2-carboxamide], the IC50 was over 1000 nM.

For the compound `Nc1ccc(C(=O)Nc2nc3cc4c(cc3[nH]2)OC(F)(F)O4)cc1` [Compound 60, 4-amino-N-(2,2-difluoro-5H-[1,3]dioxolo[4′,5′:4,5]benzo[1,2-d]imidazol-6-yl)benzamide], the IC50 was under 200 nM.

Regarding `NS(=O)(=O)c1ccc(C(=O)Nc2nc3cc4c(cc3[nH]2)OC(F)(F)O4)cc1` [Compound 62, N-(2,2-difluoro-5H-[1,3]dioxolo[4′,5′:4,5]benzo[1,2-d]imidazol-6-yl)-4-sulfamoylbenzamide], the IC50 was under 200 nM.

Regarding `O=C(Nc1nc2cc3c(cc2[nH]1)OC(F)(F)O3)c1ccc([N+](=O)[O-])s1` [Compound 63, N-(2,2-difluoro-5H-[1,3]dioxolo[4′,5′:4,5]benzo[1,2-d]imidazol-6-yl)-5-nitrothiophene-2-carboxamide], the IC50 is 200 to 1000 nM.

Turning to `O=C(Nc1nc2cc3c(cc2[nH]1)OC(F)(F)O3)c1sccc1Cl` [Compound 64, 3-chloro-N-(2,2-difluoro-5H-[1,3]dioxolo[4′,5′:4,5]benzo[1,2-d]imidazol-6-yl)thiophene-2-carboxamide], the IC50 is over 1000 nM.

Take `O=C(Nc1nc2cc3c(cc2[nH]1)OC(F)(F)O3)c1cccc([N+](=O)[O-])c1` [Compound 65, N-(2,2-difluoro-5H-[1,3]dioxolo[4′,5′:4,5]benzo[1,2-d]imidazol-6-yl)-3-nitrobenzamide]: the IC50 was under 200 nM.

Regarding `O=C(Nc1nc2cc3c(cc2[nH]1)OC(F)(F)O3)c1cccc(C(F)(F)F)c1` [Compound 66, N-(2,2-difluoro-5H-[1,3]dioxolo[4′,5′:4,5]benzo[1,2-d]imidazol-6-yl)-3-(trifluoromethyl)benzamide], the IC50 was under 200 nM.

With `O=C(Nc1nc2cc3c(cc2[nH]1)OC(F)(F)O3)c1ccccn1` [Compound 67, N-(2,2-difluoro-5H-[1,3]dioxolo[4′,5′:4,5]benzo[1,2-d]imidazol-6-yl)picolinamide], the IC50 is over 1000 nM.

`O=C(Nc1nc2cc3c(cc2[nH]1)OC(F)(F)O3)c1cccc(F)c1` [Compound 70, N-(2,2-difluoro-5H-[1,3]dioxolo[4′,5′:4,5]benzo[1,2-d]imidazol-6-yl)-3-fluorobenzamide]: the IC50 was under 200 nM.

For the compound `O=C(Nc1nc2cc3c(cc2[nH]1)OC(F)(F)O3)c1cnco1` [Compound 71, N-(2,2-difluoro-5H-[1,3]dioxolo[4′,5′:4,5]benzo[1,2-d]imidazol-6-yl)oxazole-5-carboxamide], the IC50 lay within 200 to 1000 nM.

For the compound `O=C(Nc1nc2cc3c(cc2[nH]1)OC(F)(F)O3)c1ccno1` [Compound 72, N-(2,2-difluoro-5H-[1,3]dioxolo[4′,5′:4,5]benzo[1,2-d]imidazol-6-yl)isoxazole-5-carboxamide], the IC50 lay within 200 to 1000 nM.

Consider `O=C(Nc1nc2cc3c(cc2[nH]1)OC(F)(F)O3)c1cc[nH]n1` [Compound 73, N-(2,2-difluoro-5H-[1,3]dioxolo[4′,5′:4,5]benzo[1,2-d]imidazol-6-yl)-1H-pyrazole-3-carboxamide], for which the half-maximal inhibitory concentration (IC50) was over 1000 nM.

As to `CCN(CC)c1ccc(C(=O)Nc2nc3cc4c(cc3[nH]2)OC(F)(F)O4)cc1` [Compound 74, 4-(diethylamino)-N-(2,2-difluoro-5H-[1,3]dioxolo[4′,5′:4,5]benzo[1,2-d]imidazol-6-yl)benzamide], the IC50 lay within 200 to 1000 nM.

`CN(C)c1ccc(C(=O)Nc2nc3cc4c(cc3[nH]2)OC(F)(F)O4)cc1` [Compound 75, N-(2,2-difluoro-5H-[1,3]dioxolo[4′,5′:4,5]benzo[1,2-d]imidazol-6-yl)-4-(dimethylamino)benzamide]: the IC50 is under 200 nM.

Regarding `O=C(Nc1nc2cc3c(cc2[nH]1)OC(F)(F)O3)c1ccc(NCc2ccccc2)cc1` [Compound 76, 4-(benzylamino)-N-(2,2-difluoro-5H-[1,3]dioxolo[4′,5′:4,5]benzo[1,2-d]imidazol-6-yl)benzamide], the IC50 is under 200 nM.

On to `CCNc1ccc(C(=O)Nc2nc3cc4c(cc3[nH]2)OC(F)(F)O4)cc1` [Compound 77, N-(2,2-difluoro-5H-[1,3]dioxolo[4′,5′:4,5]benzo[1,2-d]imidazol-6-yl)-4-(ethylamino)benzamide], for which the IC50 is under 200 nM.

`O=C(Nc1nc2cc3c(cc2[nH]1)OC(F)(F)O3)c1cccnc1` [Compound 78, N-(2,2-difluoro-5H-[1,3]dioxolo[4′,5′:4,5]benzo[1,2-d]imidazol-6-yl)nicotinamide]: the IC50 is under 200 nM.

Turning to `O=C(Nc1nc2cc3c(cc2[nH]1)OC(F)(F)O3)C1CCCCC1` [Compound 80, N-(2,2-difluoro-5H-[1,3]dioxolo[4′,5′:4,5]benzo[1,2-d]imidazol-6-yl)cyclohexanecarboxamide], the IC50 is under 200 nM.

In the case of `O=C(Nc1nc2cc3c(cc2[nH]1)OC(F)(F)O3)c1csc(-c2ccsc2)n1` [Compound 81, N-(2,2-difluoro-5H-[1,3]dioxolo[4′,5′:4,5]benzo[1,2-d]imidazol-6-yl)-2-(thiophen-3-yl)thiazole-4-carboxamide], the IC50 was under 200 nM.

Consider `O=C(Nc1nc2cc3c(cc2[nH]1)OC(F)(F)O3)c1csc(-c2ccc3c(c2)OCCO3)n1` [Compound 82, N-(2,2-difluoro-5H-[1,3]dioxolo[4′,5′:4,5]benzo[1,2-d]imidazol-6-yl)-2-(2,3-dihydrobenzo[b][1,4]dioxin-6-yl)thiazole-4-carboxamide], for which the IC50 is under 200 nM.

As for `N#Cc1ccc(C(=O)Nc2nc3cc4c(cc3[nH]2)OC(F)(F)O4)c(F)c1` [Compound 93, 4-cyano-N-(2,2-difluoro-5H-[1,3]dioxolo[4′,5′:4,5]benzo[1,2-d]imidazol-6-yl)-2-fluorobenzamide], the IC50 was over 1000 nM.

In the case of `NC(=O)c1ccc(C(=O)Nc2nc3cc4c(cc3[nH]2)OC(F)(F)O4)c(F)c1` [Compound 94, N^1-(2,2-difluoro-5H-[1,3]dioxolo[4′,5′:4,5]benzo[1,2-d]imidazol-6-yl)-2-fluoroterephthalamide], the IC50 is under 200 nM.

One may read the IC50 as the concentration that inhibits the measured activity by half.
